Tests used:
Huh-7 cells = test: Global methylation, LINE-1 assay (pyrosequencing); format: cell-based, human; conditions: HG media, 25HC3S for 4 hours
Experimental: Each sample, 2 was sent to […], Inc. (Hopkinton, MA) for analysis of global methylation bisulfite sequencing. The same samples, 6 μg, were sent to Novogene Co., Ltd (Tianjin, China) for analysis of whole genome bisulfite sequencing (WGBS). Total RNA was isolated using the Promega SV total RNA isolation system (Madison, WI) with DNase treatment. […] Real-time RT-PCR was performed using SYBR Green as the indicator on ABI 7500 Fast Real-Time PCR System (Applied Biosystems, Foster City, CA). Amplifications of β-actin or GAPDH were used as internal controls. Relative messenger RNA (mRNA) expression was quantified with the comparative cycle threshold (Ct) method using the primer set shown in Table 1.1 and was expressed as 2^-ΔΔct. […] PCR reaction and product purification were performed as per the manufacturer's protocol (GE Healthcare Life Sciences). The PCR products, 10 μl, were sequenced by Pyrosequencing on the PSQ96 HS System following the manufacturer's instructions (Pyrosequencing, Qiagen). The methylation status of each CpG site was determined individually as an artificial C/T SNP using QCpG software (Pyrosequencing, Qiagen). The methylation level at each CpG site was calculated as the percentage of the methylated alleles divided by the sum of all methylated and unmethylated alleles. The mean methylation level was calculated using methylation levels of all measured CpG sites within the targeted region of each gene. Each experiment included non-CpG cytosines as internal controls to detect incomplete bisulfite conversion of the input DNA. In addition, a series of unmethylated and methylated DNA were included as controls in each PCR assay. Furthermore, PCR bias testing was performed by mixing unmethylated control DNA with in vitro methylated DNA at different ratios (0%, 5%, 10%, 25%, 50%, 75%, and 100%), followed by bisulfite modification, PCR, and Pyro-sequencing analysis.

[1] = Excretion mass balance, single intravenous dose; format: in vivo, male Sprague Dawley rats; conditions: iv 10 mg/kg; over 168 hours
Experimental: Nine male Sprague Dawley rats (Group 1) were designated for the pharmacokinetic phase, 3 male Sprague Dawley rats (Group 2) for the excretion mass balance phase, and 7 male Sprague Dawley rats (Group 3) and 9 male Long Evans rats (Group 4) for the tissue distribution phase. All animals received a single intravenous dose of [^14C]-25HC3S at 10 mg/kg and a target radioactivity of 225 μCi/kg. Blood samples were collected from all Group 1 animals at approximately 0.083, 0.25, 0.5, 1, 2, 4, 8, 12, 24, 48, and 72 hours post-dose. Urine and feces were collected from all Group 2 animals periodically through 168 hours post-dose. […] Following blood collection, animals were euthanized by CO2 inhalation and carcasses frozen in a dry ice/hexane bath for processing by quantitative whole body autoradiography. Whole blood, plasma, urine, feces, cage rinse, and cage wash were analyzed for total radioactivity by liquid scintillation counting.

[2] = Metabolite profiling of plasma, urine, feces after intravenous dose (HPLC radiodetection, MS); format: in vivo, rats; conditions: iv 10 mg/kg
Experimental: Plasma pools were made from Group 1 rats at the 0.083, 0.25, 0.5, and 1-hour collection time points.
Urine pools were prepared for Group 2 at 0 to 6 and 6 to 12 hours post-dose. […] Four metabolites present at <10% relative observed intensity in at least 1 sample were M7 (<5% relative observed intensity), M16 (<3% relative observed intensity), M19 (<6% relative observed intensity), and M25 (<5% relative observed intensity).
Feces pools were prepared for Group 2 at 0 to 12, 12 to 24, and 24 to 48 hours post-dose.

[3] = Metabolite profiling of plasma and feces after oral dose (radio-HPLC, HPLC/MS); parameters: species or system rats; conditions: Sprague Dawley, rat, in vivo, 75 mg/kg
Experimental: Radiolabeled components in plasma and feces extracts were profiled and identified using radio-high performance liquid chromatography (HPLC) and high performance liquid chromatography/mass spectrometry (HPLC/MS) methods.
Plasma pools were prepared for Group 1 (75 mg/kg, [14C]-25HC3S) samples collected at 2, 4, and 6 hours post-dose. […] One metabolite M29 was identified as 25-hydroxycholesterol with 37% ROI and a concentration of 1233 ng-equiv./g.
Feces pools were prepared for Group 2 (75 mg/kg, [^14C]-25HC3S) samples collected from 0 to 24, 24 to 48, 48 to 72, 72 to 96, 96 to 120, 120 to 144, and 144 to 168 hours post-dose. A total of eleven metabolites were identified. None of the metabolites were present at ≥5% of dose. Metabolites present at 2-5% of dose were M1(4.5% of total dose and 1%-69% ROI), M3 (4.6% of total dose and 1%-44% ROI), M4 (2.0% of total dose and 0%-10% ROI), M8 (3.1% of total dose and 1%-46% ROI), M29 (1.9% of total dose and 0%-2% ROI), and M30 (3.3% of total dose and 0%-5% ROI).

dose recovered in urine, feces, and cage rinse [1]: approximately 100.2 % of the dose
recovered radioactivity in feces [1]: 83.0%
amount in feces ([2]; pools 0 to 48 hours post-dose): 2 % of dose
share of the exposure (AUC) to 25HC3S related radioactivity in plasma ([2]; up to 1 hour post-dose): approximately 54%
ROI in feces [3]: 0-88%
amount in feces [3]: 71.1 % of total dose
Compound: C[C@H](CCCC(C)(C)O)[C@H]1CC[C@H]2[C@@H]3CC=C4C[C@@H](OS(=O)(=O)O)CC[C@]4(C)[C@H]3CC[C@]12C [25HC3S, 25-hydroxycholesterol-3-sulfate]
Reduction of methylation (demethylation) at LINE-1 Pos1 (Huh-7 cells): −5%
Reduction of methylation (demethylation) at LINE-1 Pos3 (Huh-7 cells): −10%
Reduction of methylation (demethylation) at LINE-1 Pos 4 (Huh-7 cells): −5.6%

— patent publication US20230372361A1, “USE OF OXYGENATED CHOLESTEROL SULFATES FOR TREATING INFLAMMATORY CONDITIONS” (Durect Corporation, priority 2020, published 2023)
